Results on 22 compounds are retold here after ChEMBL document CHEMBL5360650, “Discovery of Small-Molecule TIM-3 Inhibitors for Acute Myeloid Leukemia Using Pharmacophore-Based Virtual Screening” (J Med Chem, 2023).

Calls of active or inactive are those of the source. The rule behind the calls is not given here.

A word on the Kd: it is the free concentration of one partner at which half of the binding sites on the other are occupied at equilibrium, for simple one-to-one binding.

In assay [1] the target is T1, Hepatitis A virus cellular receptor 2 (Homo sapiens, UniProt Q8TDQ0).
T1 sequence (Q8TDQ0 whole entry): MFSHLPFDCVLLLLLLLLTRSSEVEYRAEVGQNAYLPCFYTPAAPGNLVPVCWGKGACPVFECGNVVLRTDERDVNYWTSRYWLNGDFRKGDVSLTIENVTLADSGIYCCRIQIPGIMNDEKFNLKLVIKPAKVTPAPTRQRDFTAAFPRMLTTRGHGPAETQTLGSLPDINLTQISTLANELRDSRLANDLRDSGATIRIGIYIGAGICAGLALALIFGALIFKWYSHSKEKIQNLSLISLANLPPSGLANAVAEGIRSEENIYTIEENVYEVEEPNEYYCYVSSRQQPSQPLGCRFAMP
Description: Binding affinity to His-tagged recombinant human TIM3 expressed in HEK293 cells assessed as dissociation constant by sensor chip immobilization based SPR analysis. Background: Surface plasmon resonance follows binding to a sensor surface in real time, without labels.

Assay [2] deals with T1, Hepatitis A virus cellular receptor 2. Description: Binding affinity to His-tagged recombinant human TIM3 expressed in HEK293 cells assessed as dissociation constant by MST assay. The format is cell-based.
The species entered for a further assay is Homo sapiens. The assay can be described thus: Inhibition of polyhis-tagged CEACAM1 binding to recombinant human TIM3 at 200 to 1000 nM preincubated with TIM3 for 1 hr followed by CEACAM1 addition measured after 1 hr by ELISA method. The following applies: dose 200-1000 nM, time 2.0 hrs. A general note: In an ELISA, binding on a coated surface is turned into a signal by an enzyme label.

The target of assay [3] is Hepatitis A virus cellular receptor 2 (Homo sapiens) (UniProt Q8TDQ0). The assay can be described thus: Inhibition of recombinant human Gal-9 binding to biotinylated recombinant human TIM3 at 1 uM by competitive ELISA method.
For assay [4] the target is unchanged. The assay can be described thus: Inhibition of AF647-labeled TIM3 (unknown origin) binding to ptdSer in staurosporine-induced human Jurkat cells at 200 to 1000 nM preincubated with TIM3 followed by cell culture addition by flow cytometry. Type of assay: cell-based. The following applies: dose 200-1000 nM. For orientation: In flow cytometry, cells or beads pass a laser one at a time.

For assay [5] the target is unchanged. The assay can be described thus: Inhibition of recombinant TIM3 (unknown origin) cocultured in PBMC cells assessed as IFN-gamma release at 5 uM by ELISA method. Type of assay: cell-based.
In the next assay the test system is Kasumi 1. Description: Inhibition of cell proliferation of human Kasumi 1 cocultured with 5 uM compound treated human PBMC cells by H3 thymidine uptake. Type of assay: functional, cell-based.
The test system of a further assay is THP-1. Description: Inhibition of cell proliferation of human THP-1 NucLight Red cells at 5 uM by incucyte based immune cell killing assay. The format is functional.

Regarding `Cc1cccc(-c2noc(-c3cccc(NC(=O)COc4ccccc4)c3)n2)c1`, the Kd in assay [1] came out at 46.3 µM. Turning to `COc1ccc(-c2noc(-c3cccc(OCC(=O)Nc4cc(OC)ccc4OC)c3)n2)cc1`, the Kd in assay [1] worked out at 0.98 µM.

With `CCOc1ccc(NC(=O)COc2cccc(-c3nc(-c4ccc(OC)cc4)no3)c2)cc1`, in assay [1], the Kd amounted to 1.35 µM.

With `COc1ccc(-c2noc(-c3cccc(OCC(=O)Nc4ccncc4)c3)n2)cc1`, the equilibrium dissociation constant (Kd) in assay [1] stood at 2.01 µM.

In the case of `COc1ccc(-c2noc(-c3cccc(NC(=O)COc4cccc(C)c4)c3)n2)cc1`, the Kd in assay [1] was 6.04 µM.

Regarding `COc1ccc(-c2noc(-c3cccc(OCC(=O)Nc4ccc(F)cc4)c3)n2)cc1`, the Kd in assay [1] was found to be 20.4 µM.

Turning to `COc1ccc(-c2noc(-c3cccc(OCC(=O)Nc4cccc(C)c4)c3)n2)cc1`, in assay [1], the dissociation constant Kd came to 3.12 µM.

For the compound `COc1ccc(-c2noc(-c3cccc(NC(=O)COc4ccccc4C)c3)n2)cc1`, in assay [1], the Kd was found to be 8.32 µM. On the same count and under the same terms, in the case of `COc1ccc(-c2noc(-c3ccccc3OCC(=O)Nc3cc(C)cc(C)c3)n2)cc1` it was 28.9 µM. Same read-out and setting: in the case of `COc1ccc(-c2noc(-c3cccc(OCC(=O)Nc4ccccc4F)c3)n2)cc1` it was 27.6 µM; in that of `CCOc1ccc(NC(=O)COc2cccc(-c3noc(-c4ccc(OC)cc4)n3)c2)cc1`, 1.28 µM. On to `Cc1ccc(-c2noc(-c3cccc(NC(=O)COc4ccccc4)c3)n2)cc1`, for which the Kd in assay [1] came out at 42.4 µM. For `COc1ccc(-c2noc(-c3cccc(OCC(=O)Nc4cccc(OC)c4)c3)n2)cc1`, in assay [1], the Kd was 1.63 µM.

Consider `O=C(COc1ccccc1)Nc1cccc(-c2nc(-c3ccccc3)no2)c1`, for which the equilibrium dissociation constant (Kd) in assay [1] came out at 63.7 µM. The same measure, in the same setting: in the case of `COc1ccc(-c2noc(-c3cccc(OCC(=O)NCc4ccco4)c3)n2)cc1` it was 11.6 µM; in that of `COc1cc(-c2cc(OC)c3c(C)oc(C)c3c(=O)c2)ccc1OC(=O)c1ccc(C)cc1`, 28.9 µM. Consider `Cc1ccc(Nc2nc(C)cc(Nc3ccc(NC(=O)c4ccc5c(c4)OCO5)cc3)n2)cc1`, for which the Kd in assay [1] was found to be 17.3 µM. Regarding `COc1ccc(-c2noc(-c3cccc(OCC(=O)Nc4ccc(OC)cc4OC)c3)n2)cc1`, the Kd in assay [2] is 0.00058 µM; in assay [1] it was 0.61 µM. Moreover, the inhibition result (in the assay listed under Homo sapiens; in assay [3]; in assay [4]; in assay [5]; in the assay on Kasumi 1; with THP-1) was “Active” in each case. For the compound `Cc1ccc(OCC(=O)Nc2cccc(-c3nc(-c4ccccc4)no3)c2)cc1`, the Kd in assay [1] was 53.1 µM. Take `COc1ccc(-c2noc(-c3cccc(NC(=O)COc4ccccc4)c3)n2)cc1`: the Kd in assay [1] was found to be 12.7 µM. As to `COc1ccc(-c2noc(-c3cccc(OCC(=O)Nc4ccc(C)nc4)c3)n2)cc1`, the dissociation constant (Kd) in assay [1] turned out to be 2.47 µM.

With `COc1ccc(-c2noc(-c3cccc(NC(=O)COc4ccc(C)cc4)c3)n2)cc1`, the Kd in assay [1] stood at 9.45 µM.
